Patent publication US20090004683A1, “Indicator Agent for Noninflammatory Stress Response and Use Thereof” (priority 2004, published 2009)

How the values were obtained:
procaspase-11 = assay: Procaspase-11 protein in the adrenal of restraint stress mice (Western blotting); format: in vivo, mouse; details: given i.p. during restraint
Experimental: Each mouse was kept in a restrainer for 1 hour, and Ac-YVAD-CHO (200 μM/50 μl PBS(−)), Z-FA-fmk (100 μM/50 μl PBS(−)) and SB-203580 (100 μg/50 μl PBS(−) per mouse) were administered intraperitoneally. 1 and 3 hours after the start of restraint, SOD-1 (20 U) and DPI (30 μg) were administered intraperitoneally to the mouse, and samples were analyzed by Western blotting.
Western blot analysis of IL-18 and phosphorylated P38MAP kinase in adrenal tissue was performed as described below. The adrenal tissue was homogenized in an immunoprecipitation (IP) buffer solution (50 mM Tris pH 7.4, 150 mM NaCl, 0.5% NP-40 and 0.5% sodium deoxycholate) containing a protease inhibitor mixture (manufactured by Roche Diagnostics) using a Polytron homogenizer. […] The aforementioned membrane was incubated with an antibody (IL-18, phosphorylated (Thr180/Tyr182) P38 MAP kinase, caspase-1 or caspase-11), and the reacted protein was detected using an ECL plus system (manufactured by Amersham biosciences). Procaspase-11 and activated P38 MAP kinase were quantified using a Science Lab 99 image analysis system (manufactured by Fujifilm).

[1] = tested on: Primary culture human skin keratinocytes; assay: IL-18 release from keratinocytes with UV-B ray irradiation; format: cell-based; details: 100 mJ UV-B, SOD 1-20 U/ml or water-soluble vitamin E 100 nM-10 mM/ml
Experimental: Primary culture human skin keratinocytes (keratinocytes: purchased from CAMBREX Company) were cultured in a basal medium for keratinocytes contained in petri dishes for cell culture 6 cm in diameter at 1.0-2.0×10^6/dish. This was irradiated with 100 mJ of ultraviolet B rays (UV-B rays), after which the cells were cultured for 1 hour, after which the medium was collected, and the concentration of IL-18 protein in the medium was measured. Also, after the UV-B ray treatment, the cells were cultured in a medium containing SOD (1, 2.5, 5, 10, 20 U/ml), which is an active oxygen eliminator, or water-soluble vitamin E (100 nM, 1, 2.5, 5, 10 mM/ml), and the concentration of IL-18 protein in the medium was measured. In the keratinocytes, the activation and release of IL-18 by the active oxygen molecular species were observed. Furthermore, these were suppressed by SOD, which is an active oxygen eliminator, or by vitamin E, which neutralizes active oxygen, dose-dependently (FIGS. 7C and 7D).

Brain microglia = assay: IL-18 release from microglia with paraquat stimulation; format: cell-based, mouse; details: microglia, 100 nM paraquat 1 hour; SOD 1-20 U/ml or water-soluble vitamin E 100 nM-10 mM/ml
Experimental: Brain microglia isolated from the mouse neonatal brain by the method of Hassan et al. (Hassan N F, Rifat S, Campbell D E, McCawley L J, Douglas S D. J. Leukoc Biol. 1991 July; 50(1):86-92) were cultured at 1.5-2.0×10^6/ml. This was cultured in Dulbecco's minimum essential medium containing 100 nM of paraquat, which is an active oxygen generator, for 1 hour, after which the medium was exchanged with a paraquat-free medium. After further cultivation for 3 hours, the medium was collected, and the concentration of IL-18 protein in the medium was measured.

Abdominal macrophages = assay: IL-18 release from macrophages with paraquat stimulation; format: cell-based, mouse; details: 100 nM paraquat 15 minutes, SOD 1-20 U/ml
Experimental: Abdominal macrophages isolated from mice by the method of Hamilton et al. (Hamilton T A, Weiel J E, Adams D O., J. Immunol. 1984 May; 132(5):2285-90) were cultured in Dulbecco's minimum essential medium at 1.0-2.0×10^5/dish. The medium was exchanged with the aforementioned medium containing 100 nM of paraquat, which is an active oxygen generator, and the cells were cultured for 15 minutes, after which the medium was exchanged with a paraquat-free medium, and the cells were further cultured for 3 hours, after which the medium was collected, and the concentration of IL-18 protein in the medium was measured.

Synovial membrane tissue = assay: IL-18 release from synovial membrane tissue with paraquat stimulation; format: cell-based, human; details: synovial membrane tissue of articular rheumatism patient, 100 nM paraquat 15 minutes; SOD 1-20 U/ml
Experimental: Synovial membrane tissue collected from the articular synovial membrane at a lesion site of an articular rheumatism patient was subjected to tissue culture in an RPMI-1640 medium containing 10% fetal bovine serum by the method of Tanaka et al. (Tanaka M, Harigai M, Kawaguchi Y, Ohta S, Sugiura T, Takagi K, Ohsako-Higami S, Fukasawa C, Hara M, Kamatani N., J. Rheumatol. 2001 August; 28(8):1779-87). The medium was exchanged with the aforementioned medium containing 100 nM of paraquat, which is an active oxygen generator, and the cells were cultured for 15 minutes, after which the medium was exchanged with a paraquat-free medium, and the cells were further cultured for 1 hour, after which the medium was collected, and the concentration of IL-18 protein in the medium was measured.

[2] = tested on: Primary culture human renal proximal tubular epithelial cells; assay: IL-18 release from renal tubular epithelial cells with paraquat stimulation; format: cell-based; details: renal tubular epithelial cells, 100 nM paraquat 15 minutes; SOD 1-20 U/ml or water-soluble vitamin E 100 nM-10 mM/ml

With “SOD: superoxide dismutase (SOD)-1 purchased from Sigma; active oxygen eliminator” the “stress-induced increase in procaspase-11 protein” value (procaspase-11) was “reduced”, the “activation and release of IL-18 into the medium” value (from here on “activation and release”) [1] was “suppressed” and the “activation and release” value (Brain microglia) was “suppressed”. The “activation and release” value (Abdominal macrophages) was “suppressed”, the “activation and release” value (Synovial membrane tissue) was “suppressed” and the “activation and release” value [2] was “suppressed”.
